The supplement of paper PMC4862054

Legend:
Conditions in all cases: incubation time: 72 h
BT-474 [1] = assay: normalised response (% of control), CellTox Green; higher = less cell death (100 = DMSO, 0 = benzethonium chloride kill control)
Outline: (§1)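 A 20 µl suspension of breast cancer cells was seeded into each well of 384-well plates containing compound at 5 concentrations in 10-fold steps over a compound-specific 10,000-fold range. After 72 h incubation, CellTox Green fluorescence (485/520 nm) was read first, and CellTiter-Glo luminescence was read after 10 min at room temperature. Each plate was normalised against 0.1 % DMSO (100) and a positive kill control (0), and each value is the normalised signal at one concentration.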

BT-549 [2] = assay: as above
Outline: as §1

CAL-51 [3] = assay: as above
Outline: as §1

CAL-85-1 [4] = assay: as above
Outline: as §1

MDA-MB-436 [5] = assay: as above
Outline: as §1

MDA-MB-231 [6] = assay: as above
Outline: as §1

HDQ-P1 [7] = assay: as above
Outline: as §1

CAL-120 [8] = assay: as above
Outline: as §1

DU-4475 [9] = assay: as above
Outline: as §1

MDA-MB-468 [10] = assay: as above
Outline: as §1

Hs578T [11] = assay: as above
Outline: as §1

MFM-223 [12] = assay: as above
Outline: as §1

CAL-148 [13] = assay: as above
Outline: as §1

HCC1599 [14] = assay: as above
Outline: as §1

HCC1937 [15] = assay: as above
Outline: as §1

MDA-MB-453 [16] = assay: as above
Outline: as §1

MCF-10A [17] = assay: as above
Outline: as §1

HCC1143 [18] = assay: as above
Outline: as §1

BT-474 [19] = assay: normalised response (% of control), CellTiter-Glo; higher = more viable cells (100 = DMSO, 0 = benzethonium chloride kill control)
Outline: as §1

BT-549 [20] = assay: as above
Outline: as §1

CAL-51 [21] = assay: as above
Outline: as §1

SK-BR-3 = assay: as above
Outline: as §1

CAL-85-1 [22] = assay: as above
Outline: as §1

MDA-MB-436 [23] = assay: as above
Outline: as §1

MDA-MB-231 [24] = assay: as above
Outline: as §1

HDQ-P1 [25] = assay: as above
Outline: as §1

CAL-120 [26] = assay: as above
Outline: as §1

DU-4475 [27] = assay: as above
Outline: as §1

MDA-MB-468 [28] = assay: as above
Outline: as §1

Hs578T [29] = assay: as above
Outline: as §1

MFM-223 [30] = assay: as above
Outline: as §1

CAL-148 [31] = assay: as above
Outline: as §1

HCC1599 [32] = assay: as above
Outline: as §1

HCC1937 [33] = assay: as above
Outline: as §1

MDA-MB-453 [34] = assay: as above
Outline: as §1

MCF-10A [35] = assay: as above
Outline: as §1

HCC1143 [36] = assay: as above
Outline: as §1

Structure (SMILES): COc1cc([C@@H]2c3cc4c(cc3[C@@H](O[C@@H]3O[C@@H]5CO[C@@H](c6cccs6)O[C@H]5[C@H](O)[C@H]3O)[C@H]3COC(=O)[C@H]23)OCO4)cc(OC)c1O [Teniposide] (10000 nM)
- normalised response (BT-474 [1]): 59.4%
- normalised response (BT-549 [2]): 59%
- normalised response (CAL-51 [3]): 13.6%
- normalised response (CAL-85-1 [4]): -1.62%
- normalised response (MDA-MB-436 [5]): 80.5%
- normalised response (MDA-MB-231 [6]): -78.1%
- normalised response (HDQ-P1 [7]): -41.5%
- normalised response (CAL-120 [8]): 22.2%
- normalised response (DU-4475 [9]): 61.9%
- normalised response (MDA-MB-468 [10]): 29.8%
- normalised response (Hs578T [11]): 45.6%
- normalised response (MFM-223 [12]): 48.8%
- normalised response (CAL-148 [13]): 38.7%
- normalised response (HCC1599 [14]): 67%
- normalised response (HCC1937 [15]): 51%
- normalised response (MDA-MB-453 [16]): 105%
- normalised response (MCF-10A [17]): 59.6%
- normalised response (HCC1143 [18]): 74.5%
- normalised response (BT-474 [19]): 9.52%
- normalised response (BT-549 [20]): 5.21%
- normalised response (CAL-51 [21]): 14%
- normalised response (SK-BR-3): 6.25%
- normalised response (CAL-85-1 [22]): 8.03%
- normalised response (MDA-MB-436 [23]): 17.1%
- normalised response (MDA-MB-231 [24]): 15.6%
- normalised response (HDQ-P1 [25]): 34.3%
- normalised response (CAL-120 [26]): 23.6%
- normalised response (DU-4475 [27]): 4.51%
- normalised response (MDA-MB-468 [28]): 7.53%
- normalised response (Hs578T [29]): 6.65%
- normalised response (MFM-223 [30]): 12.9%
- normalised response (CAL-148 [31]): 4.81%
- normalised response (HCC1599 [32]): 5.92%
- normalised response (HCC1937 [33]): 22.8%
- normalised response (MDA-MB-453 [34]): 64%
- normalised response (MCF-10A [35]): 51.8%
- normalised response (HCC1143 [36]): 10.8%

Structure (SMILES): COc1cc2nccc(Oc3ccc(NC(=O)Nc4cc(C)on4)c(Cl)c3)c2cc1OC [Tivozanib] (10000 nM)
- normalised response (BT-474 [1]): 85.2%
- normalised response (BT-549 [2]): 126%
- normalised response (CAL-51 [3]): 25%
- normalised response (CAL-85-1 [4]): 100%
- normalised response (MDA-MB-436 [5]): 104%
- normalised response (MDA-MB-231 [6]): 77.7%
- normalised response (HDQ-P1 [7]): 93.9%
- normalised response (CAL-120 [8]): 89.6%
- normalised response (DU-4475 [9]): 98%
- normalised response (MDA-MB-468 [10]): 134%
- normalised response (Hs578T [11]): 21.6%
- normalised response (MFM-223 [12]): 93.8%
- normalised response (CAL-148 [13]): 78.1%
- normalised response (HCC1599 [14]): 102%
- normalised response (HCC1937 [15]): 111%
- normalised response (MDA-MB-453 [16]): 104%
- normalised response (MCF-10A [17]): 91.7%
- normalised response (HCC1143 [18]): 110%
- normalised response (BT-474 [19]): 50.3%
- normalised response (BT-549 [20]): 64.2%
- normalised response (CAL-51 [21]): 70.7%
- normalised response (SK-BR-3): 70.8%
- normalised response (CAL-85-1 [22]): 76.6%
- normalised response (MDA-MB-436 [23]): 79.6%
- normalised response (MDA-MB-231 [24]): 46%
- normalised response (HDQ-P1 [25]): 62.2%
- normalised response (CAL-120 [26]): 50.6%
- normalised response (DU-4475 [27]): 91.9%
- normalised response (MDA-MB-468 [28]): 52.2%
- normalised response (Hs578T [29]): 63.8%
- normalised response (MFM-223 [30]): 34.3%
- normalised response (CAL-148 [31]): 77.6%
- normalised response (HCC1599 [32]): 77.2%
- normalised response (HCC1937 [33]): 61.6%
- normalised response (MDA-MB-453 [34]): 64.3%
- normalised response (MCF-10A [35]): 42.7%
- normalised response (HCC1143 [36]): 86.2%

Structure (SMILES): CC(=O)Nc1cccc(-n2c(=O)n(C3CC3)c(=O)c3c(Nc4ccc(I)cc4F)n(C)c(=O)c(C)c32)c1 [Trametinib] (250 nM)
- normalised response (BT-474 [1]): 101%
- normalised response (BT-549 [2]): 119%
- normalised response (CAL-51 [3]): 86.8%
- normalised response (CAL-85-1 [4]): 31.4%
- normalised response (MDA-MB-436 [5]): 113%
- normalised response (MDA-MB-231 [6]): 63.1%
- normalised response (HDQ-P1 [7]): 82.9%
- normalised response (CAL-120 [8]): 77.3%
- normalised response (DU-4475 [9]): 73.2%
- normalised response (MDA-MB-468 [10]): 96%
- normalised response (Hs578T [11]): 118%
- normalised response (MFM-223 [12]): 101%
- normalised response (CAL-148 [13]): 86%
- normalised response (HCC1599 [14]): 110%
- normalised response (HCC1937 [15]): 110%
- normalised response (MDA-MB-453 [16]): 105%
- normalised response (MCF-10A [17]): 60.7%
- normalised response (HCC1143 [18]): 120%
- normalised response (BT-474 [19]): 60.1%
- normalised response (BT-549 [20]): 89%
- normalised response (CAL-51 [21]): 69%
- normalised response (SK-BR-3): 96.1%
- normalised response (CAL-85-1 [22]): 46.2%
- normalised response (MDA-MB-436 [23]): 79.2%
- normalised response (MDA-MB-231 [24]): 61.9%
- normalised response (HDQ-P1 [25]): 57.4%
- normalised response (CAL-120 [26]): 62.2%
- normalised response (DU-4475 [27]): 0.48%
- normalised response (MDA-MB-468 [28]): 82.5%
- normalised response (Hs578T [29]): 64.6%
- normalised response (MFM-223 [30]): 60.2%
- normalised response (CAL-148 [31]): 84.3%
- normalised response (HCC1599 [32]): 88.3%
- normalised response (HCC1937 [33]): 66.5%
- normalised response (MDA-MB-453 [34]): 98%
- normalised response (MCF-10A [35]): 32.3%
- normalised response (HCC1143 [36]): 81.2%
